Assay results published in ChEMBL document CHEMBL4699582, “Discovery of OATD-01, a First-in-Class Chitinase Inhibitor as Potential New Therapeutics for Idiopathic Pulmonary Fibrosis” (J Med Chem, 2020).

Legend:
[1] = target: Acidic mammalian chitinase (Homo sapiens, UniProt Q9BZP6); test: Inhibition of full-length C-terminal his-tagged human AMCase expressed in CHO-K1 cells assessed as reduction in chitinolytic activity using 4-methylumbelliferyl-beta-D-N,N-diacetylchitobioside hydrate as substrate after 60 mins by fluorometric assay; assay type: cell-based
Sequence of Acidic mammalian chitinase (Homo sapiens, UniProt Q9BZP6) (Q9BZP6 whole entry): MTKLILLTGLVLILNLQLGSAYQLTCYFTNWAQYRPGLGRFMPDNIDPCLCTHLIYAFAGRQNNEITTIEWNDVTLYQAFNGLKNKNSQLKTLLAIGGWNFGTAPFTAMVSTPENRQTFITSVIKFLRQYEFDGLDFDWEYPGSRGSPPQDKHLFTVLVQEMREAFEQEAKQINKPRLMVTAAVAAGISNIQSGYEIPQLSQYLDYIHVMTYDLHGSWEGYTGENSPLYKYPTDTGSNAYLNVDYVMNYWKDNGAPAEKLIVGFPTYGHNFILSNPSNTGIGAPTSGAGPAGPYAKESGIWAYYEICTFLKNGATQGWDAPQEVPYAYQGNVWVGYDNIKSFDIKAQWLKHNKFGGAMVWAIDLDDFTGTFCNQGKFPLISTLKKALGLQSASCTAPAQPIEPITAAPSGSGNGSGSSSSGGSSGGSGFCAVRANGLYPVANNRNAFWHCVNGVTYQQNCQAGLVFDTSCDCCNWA

[2] = target: Voltage-gated inwardly rectifying potassium channel KCNH2 (Homo sapiens, UniProt Q12809); test: Inhibition of tracer red binding to human ERG expressed in HEK293 cell membranes measured after 2 to 6 hrs by fluorescence polarization assay
Sequence of Voltage-gated inwardly rectifying potassium channel KCNH2 (Q12809 whole entry): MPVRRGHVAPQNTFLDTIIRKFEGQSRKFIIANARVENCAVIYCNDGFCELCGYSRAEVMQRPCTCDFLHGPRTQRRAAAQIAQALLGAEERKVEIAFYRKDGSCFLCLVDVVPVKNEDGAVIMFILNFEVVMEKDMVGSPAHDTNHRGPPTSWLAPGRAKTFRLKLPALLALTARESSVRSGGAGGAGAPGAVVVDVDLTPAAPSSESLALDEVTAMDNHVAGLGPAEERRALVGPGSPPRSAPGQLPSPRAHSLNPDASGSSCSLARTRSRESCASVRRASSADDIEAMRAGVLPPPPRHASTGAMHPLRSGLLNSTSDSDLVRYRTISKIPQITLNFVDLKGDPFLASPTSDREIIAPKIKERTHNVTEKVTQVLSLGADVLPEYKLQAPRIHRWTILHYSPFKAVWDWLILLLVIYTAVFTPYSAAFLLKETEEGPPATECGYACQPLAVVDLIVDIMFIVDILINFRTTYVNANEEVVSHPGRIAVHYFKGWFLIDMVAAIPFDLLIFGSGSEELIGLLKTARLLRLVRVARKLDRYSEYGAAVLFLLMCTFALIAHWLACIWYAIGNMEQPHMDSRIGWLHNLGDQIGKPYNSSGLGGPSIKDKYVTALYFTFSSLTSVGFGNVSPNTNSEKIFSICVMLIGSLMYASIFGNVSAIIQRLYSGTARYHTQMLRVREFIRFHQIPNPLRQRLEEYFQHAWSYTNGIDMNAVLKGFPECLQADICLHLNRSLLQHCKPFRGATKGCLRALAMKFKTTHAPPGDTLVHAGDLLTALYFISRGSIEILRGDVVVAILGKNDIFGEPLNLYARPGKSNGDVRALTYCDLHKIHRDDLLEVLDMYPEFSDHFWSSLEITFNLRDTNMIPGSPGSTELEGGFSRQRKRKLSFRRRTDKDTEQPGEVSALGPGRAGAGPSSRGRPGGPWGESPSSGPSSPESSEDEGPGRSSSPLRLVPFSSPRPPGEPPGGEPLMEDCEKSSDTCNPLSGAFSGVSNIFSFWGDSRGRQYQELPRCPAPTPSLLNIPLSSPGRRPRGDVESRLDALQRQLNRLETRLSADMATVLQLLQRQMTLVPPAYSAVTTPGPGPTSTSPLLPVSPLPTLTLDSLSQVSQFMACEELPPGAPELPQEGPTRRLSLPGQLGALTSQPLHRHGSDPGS

Chitotriosidase-1 [3] = target: Chitotriosidase-1 (Mus musculus, UniProt Q9D7Q1); test: biochemical
Sequence of Chitotriosidase-1 (Mus musculus, UniProt Q9D7Q1) (Q9D7Q1 whole entry): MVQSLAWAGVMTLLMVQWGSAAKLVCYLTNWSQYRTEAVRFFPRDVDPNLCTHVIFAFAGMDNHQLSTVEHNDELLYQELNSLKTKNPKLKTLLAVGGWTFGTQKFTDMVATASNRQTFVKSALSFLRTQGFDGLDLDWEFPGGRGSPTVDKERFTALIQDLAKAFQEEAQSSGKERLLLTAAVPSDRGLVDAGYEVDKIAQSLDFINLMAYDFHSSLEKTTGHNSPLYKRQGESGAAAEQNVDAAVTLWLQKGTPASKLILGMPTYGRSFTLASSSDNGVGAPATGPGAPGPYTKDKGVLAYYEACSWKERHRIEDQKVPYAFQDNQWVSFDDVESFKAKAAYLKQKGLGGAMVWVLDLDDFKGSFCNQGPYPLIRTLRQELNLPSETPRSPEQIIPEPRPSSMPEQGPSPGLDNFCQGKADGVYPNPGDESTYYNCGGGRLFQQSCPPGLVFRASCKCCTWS
Description: Inhibition of recombinant full-length C-terminal his-tagged mouse CHIT1 expressed in CHO-K1 cells assessed as reduction in chitinolytic activity using 4-methylumbelliferyl-beta-D-N,N',N"-triacetylchitotrioside as substrate after 60 mins by fluorometric assay

[4] = target: Acidic mammalian chitinase (Mus musculus, UniProt Q91XA9); test: Inhibition of full-length C-terminal his-tagged mouse AMCase expressed in expressed in CHO-K1 cells assessed as reduction in chitinolytic activity using 4-methylumbelliferyl-beta-D-N,N'-diacetylchitobioside hydrate as substrate after 60 mins by fluorometric assay; assay type: cell-based
Sequence of Acidic mammalian chitinase (Mus musculus, UniProt Q91XA9) (Q91XA9 whole entry): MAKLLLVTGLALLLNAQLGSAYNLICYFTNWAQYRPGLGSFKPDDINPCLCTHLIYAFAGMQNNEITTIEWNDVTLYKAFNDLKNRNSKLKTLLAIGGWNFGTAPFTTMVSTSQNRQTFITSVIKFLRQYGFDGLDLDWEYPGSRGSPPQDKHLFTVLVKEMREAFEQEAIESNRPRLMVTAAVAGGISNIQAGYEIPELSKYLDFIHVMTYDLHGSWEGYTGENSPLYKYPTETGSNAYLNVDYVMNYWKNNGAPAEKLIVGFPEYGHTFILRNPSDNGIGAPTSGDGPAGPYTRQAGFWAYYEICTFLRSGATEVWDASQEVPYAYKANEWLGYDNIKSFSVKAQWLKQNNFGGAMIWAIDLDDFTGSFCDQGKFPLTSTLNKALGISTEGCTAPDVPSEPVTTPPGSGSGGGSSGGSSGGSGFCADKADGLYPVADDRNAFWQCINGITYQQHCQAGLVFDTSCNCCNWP

Chitotriosidase-1 [5] = target: Chitotriosidase-1 (Homo sapiens, UniProt Q13231); assay type: cell-based; conditions: hek293f
Sequence of Chitotriosidase-1 (Homo sapiens, UniProt Q13231) (Q13231 whole entry): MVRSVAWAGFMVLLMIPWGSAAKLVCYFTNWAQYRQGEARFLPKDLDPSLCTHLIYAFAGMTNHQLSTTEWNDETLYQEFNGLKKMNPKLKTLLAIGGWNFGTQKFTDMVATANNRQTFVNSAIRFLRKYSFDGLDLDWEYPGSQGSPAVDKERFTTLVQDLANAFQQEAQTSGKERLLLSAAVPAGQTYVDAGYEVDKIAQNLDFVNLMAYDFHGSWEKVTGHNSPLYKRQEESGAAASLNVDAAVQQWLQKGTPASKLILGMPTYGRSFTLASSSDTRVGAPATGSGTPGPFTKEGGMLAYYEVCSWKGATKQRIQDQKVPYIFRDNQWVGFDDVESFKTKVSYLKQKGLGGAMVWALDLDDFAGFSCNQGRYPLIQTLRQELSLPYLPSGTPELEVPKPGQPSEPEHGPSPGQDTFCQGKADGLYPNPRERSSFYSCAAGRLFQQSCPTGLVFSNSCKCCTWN

| IC50 [1] [nM] | IC50 (Chitotriosidase-1 [3]) [nM] | IC50 [4] [nM] | IC50 (Chitotriosidase-1 [5]) | Structure (SMILES) | IC50 [2] [nM] | IC50 ([2]; hek293) |
| --- | --- | --- | --- | --- | --- | --- |
|  | 7200 | 1000 |  | C[C@@H]1CN(C2CCN(c3nnc(N)[nH]3)CC2)[C@@H](Cc2ccc(Cl)cc2)CO1 |  |  |
|  | 49 | 7.8 |  | CNC(=O)[C@H]1CN(C2CCN(c3nc(N)n[nH]3)CC2)[C@@H](Cc2ccc(Cl)cc2)CO1 |  | Not Active |
|  | 30 | 7.7 |  | COC[C@H]1CN(C2CCN(c3nc(N)n[nH]3)CC2)[C@@H](Cc2ccc(Cl)cc2)CO1 | 100000 |  |
|  | 5300 | 660 |  | Nc1n[nH]c(N2CCC(N3CC(=O)NC[C@@H]3Cc3ccc(Cl)cc3)CC2)n1 | 80000 |  |
|  | 29 | 5.5 |  | CC(C)(O)[C@H]1CN(C2CCN(c3nc(N)n[nH]3)CC2)[C@@H](Cc2ccc(Cl)cc2)CO1 |  | Not Active |
|  |  | 1.3 |  | CC[C@H]1CN(C2CCN(c3nc(N)n[nH]3)CC2)[C@@H](Cc2ccc(Cl)cc2)CO1 | 33000 |  |
|  | 19 | 2.1 |  | CC(C)[C@H]1CN(C2CCN(c3nc(N)n[nH]3)CC2)[C@@H](Cc2ccc(Cl)cc2)CO1 | 34000 |  |

Continued, compound first:

| Structure (SMILES) | IC50 [1] [nM] | IC50 (Chitotriosidase-1 [3]) [nM] | IC50 [4] [nM] | IC50 (Chitotriosidase-1 [5]) | IC50 [2] [nM] | IC50 ([2]; hek293) |
| --- | --- | --- | --- | --- | --- | --- |
| CC(C)CN1C[C@H](Cc2ccc(Cl)cc2)N(C2CCN(c3n[nH]c(N)n3)CC2)C[C@@H]1C | 84 |  |  |  | 2400 |  |
| CN1CCN(C2CCN(c3nnc(N)[nH]3)CC2)[C@@H](Cc2ccc(Cl)cc2)C1 |  |  |  |  |  | Not Active |
| Nc1nnc(N2CCC(N3Cc4ccccc4OC[C@@H]3Cc3ccc(Cl)cc3)CC2)[nH]1 |  | 137 | 59 |  | 22000 |  |
| CC(C)C[C@H]1CN(C2CCN(c3nnc(N)[nH]3)CC2)[C@@H](Cc2ccc(Cl)cc2)CO1 |  | 15 | 1 |  | 8500 |  |
| Nc1n[nH]c(N2CCC(N3CCNC(=O)[C@@H]3Cc3ccc(Cl)cc3)CC2)n1 |  | 27000 | 22000 | Not Active |  |  |
| Nc1nnc(N2CCC(N3C[C@H](CO)OC[C@@H]3Cc3ccc(Cl)cc3)CC2)[nH]1 |  | 25 | 6.7 |  | 72000 |  |
| Nc1nnc(N2CCC(N3CCS(=O)(=O)C[C@@H]3Cc3ccc(Cl)cc3)CC2)[nH]1 |  | 1700 | 3000 |  |  |  |
